This note sets out measurements from publication PMC9532562 (Acta Pharmaceutica Sinica. B, 2022).

The target of one series is HDAC5 (Homo sapiens, UniProt Q9UQL6). Put plainly: HDAC enzyme inhibition assay. In kind it is biochemical.
A further series addresses T1, HDAC6 (Homo sapiens, UniProt Q9UBN7).
T1 sequence (Q9UBN7 1-1215): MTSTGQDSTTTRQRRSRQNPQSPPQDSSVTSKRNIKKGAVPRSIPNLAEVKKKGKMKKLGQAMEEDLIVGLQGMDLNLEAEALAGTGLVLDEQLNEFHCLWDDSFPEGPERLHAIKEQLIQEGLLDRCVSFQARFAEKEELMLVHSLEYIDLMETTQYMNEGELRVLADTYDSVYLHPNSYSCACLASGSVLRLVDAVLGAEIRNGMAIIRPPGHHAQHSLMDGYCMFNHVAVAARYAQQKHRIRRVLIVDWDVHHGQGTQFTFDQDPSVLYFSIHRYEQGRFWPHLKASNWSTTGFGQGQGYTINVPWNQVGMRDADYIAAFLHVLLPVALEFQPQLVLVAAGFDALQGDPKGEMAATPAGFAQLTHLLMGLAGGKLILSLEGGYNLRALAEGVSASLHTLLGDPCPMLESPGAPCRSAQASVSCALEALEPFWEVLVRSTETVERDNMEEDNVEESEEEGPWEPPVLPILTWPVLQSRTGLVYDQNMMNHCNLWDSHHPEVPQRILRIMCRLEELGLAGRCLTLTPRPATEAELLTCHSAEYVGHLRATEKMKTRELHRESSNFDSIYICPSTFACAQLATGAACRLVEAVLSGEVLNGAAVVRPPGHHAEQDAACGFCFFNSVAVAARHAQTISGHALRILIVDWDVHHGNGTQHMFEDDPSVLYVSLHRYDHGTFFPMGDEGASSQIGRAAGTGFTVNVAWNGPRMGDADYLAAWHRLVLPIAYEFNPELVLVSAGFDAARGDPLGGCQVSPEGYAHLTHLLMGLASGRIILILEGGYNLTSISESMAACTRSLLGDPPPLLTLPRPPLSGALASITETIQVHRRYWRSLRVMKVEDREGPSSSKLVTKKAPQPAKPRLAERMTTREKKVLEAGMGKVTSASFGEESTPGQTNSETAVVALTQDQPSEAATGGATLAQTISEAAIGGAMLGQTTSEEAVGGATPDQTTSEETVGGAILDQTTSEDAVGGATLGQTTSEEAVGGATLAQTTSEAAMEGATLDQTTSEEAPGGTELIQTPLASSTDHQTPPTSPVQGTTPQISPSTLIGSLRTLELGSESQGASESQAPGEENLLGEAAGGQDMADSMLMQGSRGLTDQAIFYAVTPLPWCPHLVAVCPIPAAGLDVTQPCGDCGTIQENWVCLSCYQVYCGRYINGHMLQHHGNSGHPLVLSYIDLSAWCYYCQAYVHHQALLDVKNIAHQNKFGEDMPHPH
Put plainly: HDAC enzyme inhibition assay. In kind it is biochemical.

A further series deals with T2, HDAC11 (Homo sapiens, UniProt Q96DB2).
T2 sequence (Q96DB2 1-347): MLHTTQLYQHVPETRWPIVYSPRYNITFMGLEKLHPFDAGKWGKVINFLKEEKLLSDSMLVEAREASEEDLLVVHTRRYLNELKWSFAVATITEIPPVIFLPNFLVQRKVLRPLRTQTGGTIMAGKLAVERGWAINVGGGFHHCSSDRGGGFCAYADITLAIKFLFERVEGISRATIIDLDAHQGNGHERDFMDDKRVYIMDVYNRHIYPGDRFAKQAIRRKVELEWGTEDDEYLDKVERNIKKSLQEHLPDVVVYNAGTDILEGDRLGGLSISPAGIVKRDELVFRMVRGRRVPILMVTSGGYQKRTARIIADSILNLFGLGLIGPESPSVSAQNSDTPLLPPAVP
Put plainly: HDAC enzyme inhibition assay. In kind it is biochemical.

Series [1] in a line: LogD determination, shake flask method. The class given is physicochemical. As to conditions: n-octanol/PBS, pH 7.4.
A short description of a further series: Hepatocyte stability. In kind it is in vitro ADME. As to conditions: human, hepatocytes.
The target of a further series is T3, CYP1A2 (Homo sapiens, UniProt P05177).
T3 sequence (P05177 1-516): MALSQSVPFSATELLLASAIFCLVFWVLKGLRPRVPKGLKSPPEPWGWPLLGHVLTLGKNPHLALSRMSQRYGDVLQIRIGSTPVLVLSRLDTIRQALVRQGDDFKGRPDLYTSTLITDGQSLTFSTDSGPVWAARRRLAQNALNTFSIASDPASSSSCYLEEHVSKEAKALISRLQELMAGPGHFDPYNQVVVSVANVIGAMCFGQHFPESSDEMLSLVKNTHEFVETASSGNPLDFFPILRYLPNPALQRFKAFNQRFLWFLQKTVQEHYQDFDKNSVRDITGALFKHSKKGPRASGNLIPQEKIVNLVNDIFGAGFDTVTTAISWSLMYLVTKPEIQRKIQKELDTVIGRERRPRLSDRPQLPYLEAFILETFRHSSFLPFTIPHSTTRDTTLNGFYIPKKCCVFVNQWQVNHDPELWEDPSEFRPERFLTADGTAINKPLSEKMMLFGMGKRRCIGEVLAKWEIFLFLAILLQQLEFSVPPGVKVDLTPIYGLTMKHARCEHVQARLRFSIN
Put plainly: CYP inhibition assay, pooled human liver microsomes. In kind it is in vitro ADME. As to conditions: probe phenacetin. On the technique in general: Liver microsomes are a subcellular fraction often used to study metabolism.

In a further series the target is CYP2C9 (Homo sapiens, UniProt P11712). Described as above. In kind it is in vitro ADME. As to conditions: probe diclofenac.
Chain of CYP2C9 (P11712 whole entry): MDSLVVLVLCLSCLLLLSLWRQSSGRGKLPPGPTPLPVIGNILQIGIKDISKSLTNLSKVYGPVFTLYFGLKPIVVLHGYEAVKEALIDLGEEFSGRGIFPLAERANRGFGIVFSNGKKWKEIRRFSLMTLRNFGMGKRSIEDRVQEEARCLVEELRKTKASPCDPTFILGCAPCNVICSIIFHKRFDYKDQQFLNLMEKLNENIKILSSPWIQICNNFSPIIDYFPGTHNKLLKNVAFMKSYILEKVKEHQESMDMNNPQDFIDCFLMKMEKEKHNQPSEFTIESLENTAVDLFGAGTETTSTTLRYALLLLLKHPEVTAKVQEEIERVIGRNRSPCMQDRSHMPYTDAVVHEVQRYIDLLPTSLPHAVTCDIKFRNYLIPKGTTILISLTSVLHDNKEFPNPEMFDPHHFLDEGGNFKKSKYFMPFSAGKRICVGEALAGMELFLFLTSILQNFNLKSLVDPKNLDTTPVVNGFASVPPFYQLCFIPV
Another series addresses CYP2C19 (Homo sapiens, UniProt P33261). The description is as above. The class given is in vitro ADME. As to conditions: probe S-mephenytoin.
Another series concerns the target CYP2D6 (Homo sapiens, UniProt P10635). The series is described as above. The class given is in vitro ADME. As to conditions: probe dextromethorphan.
The target of a further series is CYP3A4 (Homo sapiens, UniProt P08684). The description is as above. In kind it is in vitro ADME. As to conditions: probe testosterone.
Chain of CYP3A4 (P08684 whole entry): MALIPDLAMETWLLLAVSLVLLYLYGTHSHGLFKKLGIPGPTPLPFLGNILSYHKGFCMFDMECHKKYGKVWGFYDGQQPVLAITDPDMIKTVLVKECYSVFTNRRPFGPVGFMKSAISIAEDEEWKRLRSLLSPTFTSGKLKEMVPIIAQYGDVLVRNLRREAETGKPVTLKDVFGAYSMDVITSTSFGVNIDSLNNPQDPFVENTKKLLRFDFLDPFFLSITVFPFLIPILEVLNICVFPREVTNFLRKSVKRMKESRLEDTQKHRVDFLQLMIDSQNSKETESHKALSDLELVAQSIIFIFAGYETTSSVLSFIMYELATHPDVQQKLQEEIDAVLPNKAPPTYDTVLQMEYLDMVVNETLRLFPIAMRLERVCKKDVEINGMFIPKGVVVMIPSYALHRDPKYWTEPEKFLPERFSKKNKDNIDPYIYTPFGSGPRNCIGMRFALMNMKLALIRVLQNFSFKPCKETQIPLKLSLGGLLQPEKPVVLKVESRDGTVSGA
The next series in a line: Plasma protein binding. The class given is in vitro ADME. As to conditions: human.
Series [2] is described as follows: In vivo brain/plasma PK studies. Details: species or system C57BL/6 mice. As to conditions: C57BL/6, mouse, ip, 1 mg/kg.

Chain of HDAC5 (Q9UQL6 whole entry): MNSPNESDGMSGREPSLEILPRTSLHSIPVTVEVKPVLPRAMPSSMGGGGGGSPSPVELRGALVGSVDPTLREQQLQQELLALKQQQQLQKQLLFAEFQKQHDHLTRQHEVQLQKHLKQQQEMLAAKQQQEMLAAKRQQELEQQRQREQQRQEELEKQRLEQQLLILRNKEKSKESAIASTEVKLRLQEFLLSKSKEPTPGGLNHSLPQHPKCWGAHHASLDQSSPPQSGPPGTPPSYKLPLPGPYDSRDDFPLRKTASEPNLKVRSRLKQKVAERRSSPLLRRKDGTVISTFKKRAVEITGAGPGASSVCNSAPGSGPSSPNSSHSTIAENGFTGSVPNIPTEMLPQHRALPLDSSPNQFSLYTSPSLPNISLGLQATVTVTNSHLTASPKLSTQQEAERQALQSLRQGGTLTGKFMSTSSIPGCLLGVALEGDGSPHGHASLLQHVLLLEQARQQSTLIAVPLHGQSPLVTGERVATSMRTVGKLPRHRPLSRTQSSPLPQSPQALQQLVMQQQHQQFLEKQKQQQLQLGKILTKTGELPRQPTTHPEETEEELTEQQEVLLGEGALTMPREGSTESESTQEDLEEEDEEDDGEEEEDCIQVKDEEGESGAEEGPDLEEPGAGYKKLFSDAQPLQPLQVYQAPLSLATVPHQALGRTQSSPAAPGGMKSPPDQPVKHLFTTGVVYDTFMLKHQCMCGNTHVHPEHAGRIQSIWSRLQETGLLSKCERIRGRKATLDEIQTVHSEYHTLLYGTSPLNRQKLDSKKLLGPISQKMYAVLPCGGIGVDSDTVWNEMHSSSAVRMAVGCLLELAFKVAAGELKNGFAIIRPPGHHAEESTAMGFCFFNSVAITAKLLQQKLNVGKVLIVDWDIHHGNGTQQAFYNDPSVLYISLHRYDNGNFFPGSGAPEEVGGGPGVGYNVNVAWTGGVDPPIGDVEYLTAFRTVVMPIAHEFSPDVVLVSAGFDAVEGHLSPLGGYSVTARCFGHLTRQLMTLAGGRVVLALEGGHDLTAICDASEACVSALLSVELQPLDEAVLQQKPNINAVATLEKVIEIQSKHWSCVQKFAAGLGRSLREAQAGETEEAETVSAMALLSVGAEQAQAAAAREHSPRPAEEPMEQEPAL
Chain of CYP2C19 (P33261 whole entry): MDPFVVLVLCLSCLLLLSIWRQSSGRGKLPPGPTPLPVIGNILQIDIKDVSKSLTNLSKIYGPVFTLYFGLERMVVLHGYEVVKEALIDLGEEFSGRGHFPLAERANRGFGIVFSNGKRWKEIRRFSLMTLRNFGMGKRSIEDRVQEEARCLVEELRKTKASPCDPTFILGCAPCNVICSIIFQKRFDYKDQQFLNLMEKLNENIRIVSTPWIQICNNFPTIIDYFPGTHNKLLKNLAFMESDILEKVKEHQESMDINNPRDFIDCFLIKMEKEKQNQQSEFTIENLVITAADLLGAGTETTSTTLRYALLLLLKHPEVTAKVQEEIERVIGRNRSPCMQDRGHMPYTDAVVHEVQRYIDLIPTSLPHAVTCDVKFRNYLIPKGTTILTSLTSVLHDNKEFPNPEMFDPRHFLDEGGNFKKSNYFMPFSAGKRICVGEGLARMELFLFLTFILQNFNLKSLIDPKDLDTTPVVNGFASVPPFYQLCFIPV
Chain of CYP2D6 (P10635 whole entry): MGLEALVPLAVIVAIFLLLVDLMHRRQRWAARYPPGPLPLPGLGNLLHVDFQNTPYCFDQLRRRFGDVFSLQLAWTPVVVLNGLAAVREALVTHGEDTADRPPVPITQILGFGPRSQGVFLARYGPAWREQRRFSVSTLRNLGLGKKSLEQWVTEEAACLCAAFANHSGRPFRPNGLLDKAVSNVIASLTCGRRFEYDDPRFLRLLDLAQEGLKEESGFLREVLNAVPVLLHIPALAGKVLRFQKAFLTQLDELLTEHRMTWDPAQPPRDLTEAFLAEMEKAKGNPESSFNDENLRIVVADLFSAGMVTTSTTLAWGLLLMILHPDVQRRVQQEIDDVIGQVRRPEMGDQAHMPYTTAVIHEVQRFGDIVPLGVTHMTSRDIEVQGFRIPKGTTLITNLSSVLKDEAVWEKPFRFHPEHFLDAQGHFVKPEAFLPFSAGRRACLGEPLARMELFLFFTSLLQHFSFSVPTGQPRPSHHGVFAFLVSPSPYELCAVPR

Regarding `COc1cc(C(=O)NO)ccc1CN1CCCCc2ccccc21` [15a, N-Hydroxy-3-methoxy-4-((2,3,4,5-tetrahydro-1H-benzo[b]azepin-1-yl)methyl)benzamide], the half-maximal inhibitory concentration (IC50) against HDAC5 was > 10 µM; against HDAC6, 6.46 µM; on HDAC11, 9.52 µM.
For `O=C(NO)c1ccc(CN2CCCCc3ccccc32)c(F)c1` [15c, 3-Fluoro-N-hydroxy-4-((2,3,4,5-tetrahydro-1H-benzo[b]azepin-1-yl)methyl)benzamide], the concentration for half-maximal inhibition (IC50) was 2.44 µM at HDAC5, 0.0052 µM on HDAC6 and 4.38 µM against HDAC11. In addition, on HDAC6 (HDAC6 vs other HDAC isoforms), the “selectivity for HDAC6 over other HDAC isoforms” value was > 119 fold. In series [1], this compound gave a logD at 1 h of 3.4. This compound also had a half-life at 5 μM in the series “Hepatocyte stability” of 32.4 min. For the same compound, the inhibition at 10 min, 10 μmol/L worked out at 36.8% on CYP1A2, 34.8% at CYP2C9, 36.3% against CYP2D6 and 89% against CYP3A4. On CYP2C19, the inhibition at 25 min, 10 μmol/L was 54%. The compound also showed a free fraction (fraction unbound) in the series “Plasma protein binding” of 0.006. Besides, the Kp at 4 h in series [2] (brain and plasma, Brain/plasma ratio, C57BL/6 mice, 4 h) stood at 2.3. For the same compound, the concentration at 0.5 h in series [2] (brain) came out at 48.5 ng/mL; in [2] (plasma), 1.32 ng/mL. Moreover, the figures for the concentration at 1 h in [2] (brain) and in series [2] (plasma) were 11.5 ng/mL and 0.72 ng/mL, respectively. Besides, the concentration at 4 h was 0.82 ng/mL in series [2] (brain) and 0.35 ng/mL in series [2] (plasma).
As for `O=C(NO)c1ccc(CN2CCCCc3ccccc32)cc1F` [15d, 2-Fluoro-N-hydroxy-4-((2,3,4,5-tetrahydro-1H-benzo[b]azepin-1-yl)methyl)benzamide], the results for the half-inhibitory concentration (IC50) against HDAC5, against HDAC6 and against HDAC11 were > 10 µM, 0.0251 µM and 5.42 µM, respectively.

Broadly, the IC50 is the concentration needed to halve the response being measured. High values mean a need for much substance, low ones inhibition by little substance. Usually logD stands for the decadic logarithm of the distribution of all forms, ionised or not, between an organic phase and buffer at a given pH. Usually half-life stands for the time needed for the level to fall by half in the phase considered. Read a low half-life as rapid decline. By inhibition is commonly meant the relative decrease from the control value, in per cent. Low values mean a weak effect, high ones a strong effect. A word on the fraction unbound: it is free concentration divided by total concentration. A high value points to weak binding. Usually Kp stands for tissue or fluid exposure divided by exposure in the circulation.
